In ChEMBL document CHEMBL1201862, “PubChem BioAssay data set” (2004):
Values joined by “and” are separate entries in the source; they are usually repeats but may differ in a detail not shown here. Identical values can stand only once.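 Each compound was tested at five concentrations against cells in 96-well plates for 48 hours. GI50 marks 50% less growth.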 Active and inactive are the calls of the source. Rule as the data show it: active = GI50 up to about 1.1 µM and inactive = higher.

Assays:
Assay in all cases: NCI-60 cell line screen, 48 h
[1] = tested on: MCF7
[2] = tested on: HCC 2998
[3] = tested on: NCI-H226
[4] = tested on: SK-MEL-28
[5] = tested on: OVCAR-5
[6] = tested on: U-251
[7] = tested on: SNB-75
[8] = tested on: MOLT-4
[9] = tested on: SNB-19
[10] = tested on: A549
[11] = tested on: SF-268
[12] = tested on: HCT-15
[13] = tested on: UACC-257
[14] = tested on: SK-MEL-5
[15] = tested on: EKVX
[16] = tested on: Hs-578T
[17] = tested on: HOP-92
[18] = tested on: MDA-N
[19] = tested on: HT-29
[20] = tested on: BT-549

Measured: GI50

Cc1ccc2c(c1)CC1(C2)Cc2ccc(C)cc2C1=O (centres undefined)
15.6 µM: [12]
inactive: [1] 24.7 µM | [2] 25.9 µM | [3] 11.5 µM | [4] 42 µM | [5] 43.9 µM | [6] 37 µM | [7] 18.2 µM | [8] 14.9 µM | [9] 61.4 µM | [10] 33.3 µM | [11] 32 µM | [13] 18.9 µM | [14] 13 µM | [15] 32.2 µM | [16] 20.7 µM | [17] 19.5 µM | [18] 7.35 µM | [19] 18.7 µM

CCC(=O)C1(N2CCOCC2)CCN(CCCC(=O)c2ccc(F)cc2)CC1
inactive: [1] > 100 µM | [2] > 100 µM | [3] > 100 µM | [4] > 100 µM | [5] > 100 µM | [6] > 100 µM | [7] > 100 µM | [8] > 100 µM | [9] > 100 µM | [10] > 100 µM | [11] > 100 µM | [14] > 100 µM | [15] > 100 µM | [16] > 100 µM | [18] > 100 µM | [19] 39.2 µM
> 100 µM: [12]

NC1CC(=O)c2cscc21 (centres undefined)
25.4 µM: [12]
inactive: [4] 37.3 µM | [5] > 100 µM | [6] > 100 µM | [7] > 100 µM | [8] 20.6 µM | [9] 53.3 µM | [10] 14.1 µM | [13] 93.5 µM | [14] > 100 µM | [15] > 100 µM | [20] 58.9 µM | [17] 23 µM | [18] > 100 µM | [19] > 100 µM

Cc1cccc(N/C(Sc2ccccc2)=C(/C(Cl)=C(Cl)Cl)[N+](=O)[O-])c1
inactive: [1] 29.3 µM | [2] 39.4 µM | [3] 16.6 µM | [4] 17.4 µM | [5] 15.1 µM | [6] 15.4 µM | [7] 26.1 µM | [8] 21.5 µM | [9] 28.7 µM | [10] 20 µM | [11] 17.8 µM | [13] 20.8 µM | [15] 16.9 µM | [20] 20.4 µM | [18] 19.4 µM | [19] 17.6 µM
15.3 µM: [12]

CC(=O)OC1COC(n2c(N)c(C#N)c(C)c(C#N)c2=S)C(OC(C)=O)C1OC(C)=O (centres undefined)
inactive: [1] 88.1 µM | [2] 75.3 µM | [3] > 100 µM | [4] > 100 µM | [5] > 100 µM | [7] > 100 µM | [10] > 100 µM | [11] > 100 µM and 85.5 µM | [13] > 100 µM | [14] > 100 µM | [20] > 100 µM | [18] > 100 µM | [19] > 100 µM
> 100 µM: [12]

CN(C(=O)C1=CCCCCC1)c1ccccc1I
inactive: [1] 51.5 µM | [2] 45.9 µM | [4] 37.5 µM | [5] > 100 µM | [6] 44.9 µM | [7] 13.5 µM | [8] 49.3 µM | [9] 62.5 µM | [10] 62.1 µM | [11] 24.3 µM | [13] 44.6 µM | [14] 23.6 µM | [15] 28.4 µM | [16] 1.27 µM | [17] > 10 µM | [18] 35.5 µM
39.6 µM: [12]

CN(NC(=O)/C(=C\c1ccco1)NC(=O)c1ccccc1)c1cn[nH]c(=O)c1Cl
inactive: [1] > 100 µM | [3] 45.6 µM | [4] 36.6 µM | [5] > 100 µM | [6] 79.4 µM | [7] 23.4 µM | [8] 29.6 µM | [9] 97.9 µM | [10] > 100 µM | [11] > 100 µM | [13] 48.8 µM | [14] 29.7 µM | [15] > 100 µM | [16] 52.1 µM | [17] > 100 µM | [19] 58.6 µM
57.3 µM: [12]

O=C1OC[C@@H]2Cc3c([nH]c4ccccc34)[C@@H](c3ccc(O)cc3)N12
inactive: [1] 36.6 µM | [2] 38.4 µM | [3] 29 µM | [4] 54.6 µM | [5] 39.4 µM | [6] 39.2 µM | [7] 17 µM | [8] 31.3 µM | [9] 54.2 µM | [10] 26.8 µM | [11] 42.6 µM | [13] 29.9 µM | [14] 17.2 µM | [15] 36.3 µM | [16] 88.3 µM | [17] 96.8 µM | [18] 33 µM | [19] 34.9 µM
37.8 µM: [12]

CCCCCCCCCCCCCCCCCc1nc(C#N)c(N)o1
86.9 µM: [12]
inactive: [1] > 100 µM | [4] > 100 µM | [5] 73.1 µM | [6] 44.2 µM | [7] 21.4 µM | [8] 5.06 µM | [9] 73.8 µM | [10] > 100 µM | [11] 33.2 µM | [13] > 100 µM | [14] > 100 µM | [15] > 100 µM | [16] 20.8 µM | [17] 74.5 µM | [18] > 100 µM | [19] > 100 µM

FC(F)(F)C1(C(F)(F)F)C2CCC3(CC(F)(F)C(F)(F)S3)C1C2 (centres undefined)
62.8 µM: [12]
inactive: [1] 36.1 µM | [2] > 100 µM | [3] 64.7 µM | [4] > 100 µM | [5] 48.6 µM | [6] > 100 µM | [7] 61.9 µM | [8] 23.4 µM | [9] > 100 µM | [10] 38.9 µM | [11] 44.6 µM | [13] 26.1 µM | [14] 44.3 µM | [15] 32.4 µM | [16] > 100 µM | [18] > 100 µM | [19] 29 µM

CCCC(=O)Oc1ccc2c(C)cc(=O)oc2c1OC(=O)CCC
31.8 µM: [12]
inactive: [1] 55.5 µM | [3] 34.8 µM | [4] 54.2 µM | [5] > 100 µM | [6] 57.3 µM | [7] 40.6 µM | [8] 50 µM | [9] > 100 µM | [10] 31.6 µM | [11] 46.2 µM | [13] 36.1 µM | [14] 56 µM | [15] 70.5 µM | [16] 56.6 µM | [17] 41.3 µM | [18] > 100 µM | [19] 35.5 µM

C/N=C(\Nc1cccc(C(F)(F)F)c1)SCc1ccc(N=C=S)cc1
7.14 µM: [12]
inactive: [2] 15.6 µM | [3] 19.8 µM | [4] 21 µM | [5] 16.5 µM | [6] 15.8 µM | [7] 14.2 µM | [8] 11.5 µM | [9] 14.9 µM | [10] 18.1 µM | [11] 31.2 µM | [13] 14.3 µM | [14] 16.3 µM | [15] 20.2 µM | [16] 14.7 µM | [17] 14.7 µM | [18] 14.8 µM | [19] 15.6 µM

O=C1c2n[nH]nc2C(=O)c2n[nH]nc21
inactive: [1] > 100 µM | [2] > 100 µM | [3] > 39.2 µM | [4] > 100 µM | [5] > 100 µM | [6] > 100 µM | [7] > 100 µM | [8] > 100 µM | [9] > 100 µM | [10] > 100 µM | [11] > 100 µM | [13] > 100 µM | [14] > 100 µM | [15] > 100 µM | [16] > 100 µM | [17] > 100 µM | [18] > 100 µM | [19] > 100 µM
> 100 µM: [12]

CC(=O)[O-].[Zn+].c1ccc(/C(=N\Nc2ccccn2)c2ccccn2)cc1
active: [1] 0.000912 µM | [2] 0.71 µM | [3] 0.0929 µM | [4] 0.255 µM | [5] 0.025 µM | [6] 0.281 µM | [7] 0.914 µM | [8] 0.000773 µM | [9] 1.06 µM | [10] 0.344 µM | [11] 0.277 µM | [13] 0.08 µM | [14] 0.0684 µM | [15] 0.00629 µM | [16] 0.931 µM | [17] 0.381 µM | [18] 0.426 µM | [19] 0.01 µM
0.0137 µM: [12]

O=C(O)C1CC2C3CCC2C1C3=O (centres undefined)
> 100 µM: [12]
inactive: [1] > 100 µM | [2] > 100 µM | [3] > 100 µM | [4] > 100 µM | [5] > 100 µM | [6] > 100 µM | [7] > 100 µM | [8] > 100 µM | [9] > 100 µM | [10] > 100 µM | [11] > 100 µM | [13] > 100 µM | [14] > 100 µM | [15] > 100 µM | [16] > 100 µM | [17] > 100 µM | [18] > 100 µM | [19] > 100 µM

CC1/C(=N\O)CC(c2ccccc2)N(C)C1c1ccccc1 (centres undefined)
inactive: [2] > 100 µM | [3] > 100 µM | [4] > 100 µM | [5] > 100 µM | [6] > 100 µM | [7] > 100 µM | [8] > 100 µM | [9] > 100 µM | [10] > 100 µM | [11] > 100 µM | [13] > 100 µM | [14] > 100 µM | [15] > 100 µM | [17] > 100 µM | [19] > 100 µM
> 100 µM: [12]
